Test results taken from US12070472B2, “Treatment of drug resistant proliferative diseases with telomerase mediated telomere altering compounds” (The Board of Regents of the University of Texas System, priority 2016, dated 2024).

Experiments:
H1993 cells = test: Sensitization by 5-azacytidine pretreatment, H1993; format: cell-based, human; conditions: Homo sapiens, NCI-H1993, 500 nM 5-azacytidine one week, then 6-thio-dG one week, read-out: IC50 of 6-thio-dG after 5-azacytidine pretreatment
Procedure: All three resistant cell lines were pre-treated with 500 nM of the demethylating agent 5-azacytidine for one week. Following the 5-azacytidine pretreatment, each resistant cell line was treated with 9 different concentrations (0.01 to 1000 micromolar) of 6-thio-dG for one week. Cells were then evaluation for growth/death.

telomerase = biological target: T1, telomerase (Homo sapiens, UniProt O14746); test: Telomerase activity by TRAP assay in treated HCT116 cells; format: cell-based; conditions: HCT116 cells treated with 1 and 10 μM every 3 days for 12 weeks
T1 construct: endogenous in cells; host or cells: HCT116 human colon cancer cells (lysate)
Procedure: Telomerase activity was measured by the TRAP assay (Telomeric Repeat Amplification Protocol as described in Shay J. W. and Bacchetti S., “A survey of telomerase activity in human cancer,” European Journal of Cancer 1997; 33:787-91.). Briefly, HCT116 cells were treated with 1 or 10 μM 6-thio-dG for 1-12 weeks. 1×10^5 cells were collected and lysed with ice-cold NP-40 lysis buffer (10 mM Tris-HCl pH 8.0, 1.0 mM MgCl2, 1 mM EDTA, 1% NP-40, 0.25 mM sodium deoxycholate, 10% glycerol, 150 mM NaCl, 5 mM β-mercaptoethanol) for 30 min. One microliter cellular lysate for 2500 cells was used for each reaction. Hela cells were used as a positive control and lysis buffer was used as a negative control. Samples were prepared and then the telomerase extension products were amplified using PCR (95° C. for 5 min to inactivate telomerase, then 95° C. for 30 sec, 52° C. for 30 sec, 72° C. for 30 sec; 24 cycles). Samples were run on a 10% non-denaturating acrylamide gel and visualized using a Typhoon PhosphorImager scanner system (Molecular Dynamics, GE Healthcare, Piscataway, NJ) that is capable of reading Cy5 fluorescence.

H2126 = test: NSCLC panel sensitivity to 6-thio-dG, H2126; format: cell-based; conditions: Homo sapiens, NCI-H2126
Procedure: A panel of NSCLC cell lines was tested for sensitivity to 6-thio-dG by performing a cell count after 1 week treatment. Briefly, cells were treated with 3 μM 6-thio-dG every three days for 1 week. Viable cells were counted at the end of treatment. Each 6-thiodG treated cell line was normalized to its DMSO treated control. The results of the cell count are depicted in FIG. 12, with the various cell lines arranged in descending resistance to 6-thio-dG from left to right. […] The IC50 values for the whole panel of tested cells are depicted in FIG. 13. The IC50 values for tested cells are depicted as a column scatter graph in FIG. 14.

T1 sequence (O14746 whole entry): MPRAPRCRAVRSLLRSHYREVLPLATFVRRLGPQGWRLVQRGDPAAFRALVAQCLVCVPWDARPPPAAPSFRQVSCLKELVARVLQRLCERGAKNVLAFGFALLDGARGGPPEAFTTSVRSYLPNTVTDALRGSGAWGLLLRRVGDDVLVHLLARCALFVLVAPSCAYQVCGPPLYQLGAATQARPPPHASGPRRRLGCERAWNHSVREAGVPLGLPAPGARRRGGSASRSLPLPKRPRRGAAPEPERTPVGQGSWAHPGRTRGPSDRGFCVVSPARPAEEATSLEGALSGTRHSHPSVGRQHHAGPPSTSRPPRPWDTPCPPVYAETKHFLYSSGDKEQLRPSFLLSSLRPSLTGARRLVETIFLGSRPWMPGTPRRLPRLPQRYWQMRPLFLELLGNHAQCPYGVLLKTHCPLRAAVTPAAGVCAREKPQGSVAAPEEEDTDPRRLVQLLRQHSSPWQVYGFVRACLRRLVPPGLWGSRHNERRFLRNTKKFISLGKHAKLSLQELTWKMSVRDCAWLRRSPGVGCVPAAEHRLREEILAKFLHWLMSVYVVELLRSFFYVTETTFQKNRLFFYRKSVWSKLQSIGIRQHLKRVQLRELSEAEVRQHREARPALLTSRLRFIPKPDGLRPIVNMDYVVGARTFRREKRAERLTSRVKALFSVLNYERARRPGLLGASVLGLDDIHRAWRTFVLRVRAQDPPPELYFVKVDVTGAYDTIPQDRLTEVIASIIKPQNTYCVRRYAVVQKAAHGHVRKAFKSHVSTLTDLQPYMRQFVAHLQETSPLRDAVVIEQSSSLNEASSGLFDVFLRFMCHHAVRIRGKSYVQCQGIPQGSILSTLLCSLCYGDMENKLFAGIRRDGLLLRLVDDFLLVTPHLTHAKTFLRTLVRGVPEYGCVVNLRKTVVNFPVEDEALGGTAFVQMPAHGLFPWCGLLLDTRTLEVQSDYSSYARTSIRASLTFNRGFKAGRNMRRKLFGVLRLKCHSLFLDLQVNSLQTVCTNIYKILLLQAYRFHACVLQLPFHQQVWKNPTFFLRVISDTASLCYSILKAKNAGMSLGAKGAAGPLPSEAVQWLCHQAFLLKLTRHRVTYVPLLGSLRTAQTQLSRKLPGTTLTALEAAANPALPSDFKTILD
T1 sequence (O60832 whole entry partner): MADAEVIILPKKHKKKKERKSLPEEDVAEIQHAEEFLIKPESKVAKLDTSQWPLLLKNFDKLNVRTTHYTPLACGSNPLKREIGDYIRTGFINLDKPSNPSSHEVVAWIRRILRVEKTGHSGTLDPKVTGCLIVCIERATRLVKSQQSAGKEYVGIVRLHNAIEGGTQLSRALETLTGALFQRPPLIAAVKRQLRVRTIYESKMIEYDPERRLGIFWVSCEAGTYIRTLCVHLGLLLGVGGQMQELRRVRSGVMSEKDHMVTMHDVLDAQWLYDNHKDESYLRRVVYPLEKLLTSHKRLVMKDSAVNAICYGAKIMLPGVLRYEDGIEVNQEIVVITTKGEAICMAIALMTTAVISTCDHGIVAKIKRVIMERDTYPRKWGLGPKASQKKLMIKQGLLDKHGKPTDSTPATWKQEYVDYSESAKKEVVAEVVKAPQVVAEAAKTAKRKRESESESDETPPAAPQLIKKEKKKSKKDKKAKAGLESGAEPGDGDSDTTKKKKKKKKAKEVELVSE
T1 sequence (Q9NY12 whole entry partner): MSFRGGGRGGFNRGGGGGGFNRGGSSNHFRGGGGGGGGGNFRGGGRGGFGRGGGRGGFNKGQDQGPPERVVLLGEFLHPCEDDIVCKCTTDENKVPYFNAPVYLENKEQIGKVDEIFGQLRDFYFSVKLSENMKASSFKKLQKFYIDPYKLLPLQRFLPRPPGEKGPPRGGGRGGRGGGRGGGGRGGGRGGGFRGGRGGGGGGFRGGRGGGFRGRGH
T1 sequence (Q9NX24 whole entry partner): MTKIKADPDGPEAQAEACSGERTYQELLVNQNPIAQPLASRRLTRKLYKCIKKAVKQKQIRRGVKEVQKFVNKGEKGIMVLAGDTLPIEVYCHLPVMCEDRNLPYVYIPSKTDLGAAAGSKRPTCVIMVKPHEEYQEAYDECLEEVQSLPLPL
T1 sequence (Q9NPE3 whole entry partner): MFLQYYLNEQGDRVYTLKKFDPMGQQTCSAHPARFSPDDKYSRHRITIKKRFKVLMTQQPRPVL
T1 sequence (Q9BUR4 whole entry partner): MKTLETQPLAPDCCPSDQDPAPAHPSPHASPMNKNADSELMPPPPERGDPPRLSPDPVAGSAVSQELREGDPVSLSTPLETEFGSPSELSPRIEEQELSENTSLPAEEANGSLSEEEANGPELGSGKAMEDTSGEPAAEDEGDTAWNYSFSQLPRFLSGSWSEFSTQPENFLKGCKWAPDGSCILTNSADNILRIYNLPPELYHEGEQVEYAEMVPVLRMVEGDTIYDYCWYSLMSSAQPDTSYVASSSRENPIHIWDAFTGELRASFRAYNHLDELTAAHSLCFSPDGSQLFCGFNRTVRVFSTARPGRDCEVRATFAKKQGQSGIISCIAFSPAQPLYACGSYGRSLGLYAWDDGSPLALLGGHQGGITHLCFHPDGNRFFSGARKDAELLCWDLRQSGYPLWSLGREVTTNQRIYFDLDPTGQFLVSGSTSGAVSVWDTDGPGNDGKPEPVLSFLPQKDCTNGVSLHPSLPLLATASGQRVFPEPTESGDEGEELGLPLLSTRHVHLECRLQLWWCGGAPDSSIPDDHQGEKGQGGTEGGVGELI

Q: With Nc1nc2c(ncn2[C@H]2C[C@H](O)[C@@H](CO)O2)c(=S)[nH]1 [6-thio-dG, 6-thio-2′-deoxyguanosine] as the molecule, how does the IC50 (H1993 cells) read?
A: The IC50 was ~4.1 µM.

Q: What about the “inhibition of telomerase activity (TRAP)” value (telomerase) of the same molecule?
A: The value was “no inhibition of telomerase activity was observed”.

Q: And the IC50 (H2126)?
A: The IC50 was 3 to 7 µM.
